Where a name gives a salt, the structure may show the parent alone. Read-outs that look alike come from different tables or passages of the source.
Assays:
[1] = tested on: A. baumannii; assay: MIC, 96-well CAMHB, 10^5 to 10^2 CFU/mL in 24 hours; assay type: cell-based, Acinetobacter baumannii; details: for MIC: Acinetobacter baumannii
In short: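 Broth microdilution in cation-adjusted Mueller Hinton broth, inoculum about 5×10^5 CFU/mL from a 0.5 McFarland suspension, 37° C for 24 hours with graded compound levels. Well contents then plated on tryptic soy agar for 24 hours at 37° C and surviving CFU/mL counted; n=8 per concentration.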

[2] = tested on: P. aeruginosa; assay: as above; assay type: cell-based, Pseudomonas aeruginosa; details: for MIC: Pseudomonas aeruginosa
In short: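 Broth microdilution in CAMHB with about 5×10^5 CFU/mL inoculum, incubated 24 h at 37 °C with graded polyamine compound concentrations. Surviving CFU/mL determined by plating each well on TSA for 24 h at 37 °C; n=8 per concentration.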

[3] = tested on: MRSA biofilms; assay: MBEC, MBEC Inoculation Tray (Innovotech), to 10^2 CFU/peg in 24 hours; assay type: cell-based, Staphylococcus aureus
From the text: To determine the MBEC of each polyamine compound, the MBEC Inoculation Tray by Innovotech, formerly known as the Calgary biofilm device, was used. Within this device, biofilms grow on the surface of polystyrene pegs, 96 of which are attached to a lid. These pegs are inserted into a flat bottom 96-well plate. In this instance, the MBEC of a molecule was defined as the concentration of compound (in μg/mL) required to reduce 10^5 or 10^6 CFU/peg (biofilm levels varied by isolate) to 10^2 CFU/peg in a 24-hour period.
Following the manufacturer's guidelines, biofilms were grown on the surface of each peg by first making a 0.5 McFarland of each isolate. The 0.5 McFarland was diluted 1:100 in CAMHB. Into each well of a flat bottom 96-well plate, 150 μL of broth were pipetted. The plate was shaken at 100 rpm for 24 hours (P. aeruginosa and A. baumannii) or 48 hours (MRSA). The pegs were then placed into a separate flat bottom 96-well plate for 10 seconds with 200 μL of phosphate buffered saline (PBS) in each well to remove nonadherent cells. The lid was then placed into a 96-well plate that contained varying concentrations of antimicrobial with 200 μL per well. The plate was incubated for 24 hours at 37° C. after which time 100 μL of broth were plated on TSA. TSA plates were incubated 24 hours at 37° C. and the number of CFU counted to calculate the CFU/peg. In this instance, the MBEC was defined as the concentration of antimicrobial required to reduce 10^5 or 10^6 CFU/peg to 10^2 CFU/peg in a 24 hour period.
MBEC data were collected using the MBEC Inoculation Tray by Innovotech. The MBEC was defined in these preliminary results as the concentration of antimicrobial required to reduce 10^5 or 10^6 CFU/peg to 10^2 CFU/peg in a 24-hour period.

| Compound | MBEC μg/mL (μM) MRSA ([3]; Table 4) [µg/mL] | MBEC μg/mL (μM) MRSA ([3]; Table 4, value in parentheses) | MIC ([1]; read-out: MIC (A. bumannii)) [µM] | further results |
| --- | --- | --- | --- | --- |
| NCCCNCCCNCc1ccccc1 [CZ-7, benzylnorspermidine] | >500 | (>2,259) μM |  | MIC ([1]; Table 3A c3, read-out: MICs (μg/mL): A. baumannii): > 500 µg/mL; MIC ([1]; Table 4, value in parentheses, read-out: MIC μg/mL (μM) A. baumannii): > 2260 µM; MIC ([1]; Table 4, read-out: MIC μg/mL (μM) A. baumannii): > 500 µg/mL; MIC ([2]; Table 3A c2, read-out: MICs (μg/mL): P. aeruginosa): > 500 µg/mL; MIC ([2]; Table 5, read-out: MIC (P. aeruginosa)): > 100 µM |
| NCCCNCCCNCc1cc(CNCCCNCCCN)cc(-c2ccccc2)c1 [CZ-58, N^1,N^1′-([1,1′-biphenyl]-3,5-diylbis(methylene))bis(N^3-(3-ammoniopropyl)propane-1,3-diaminium) chloride] | 30 | (68) μM | 50 to 100 | MIC (P. aeruginosa) ([2]; Table 5): ++ to +++ |
| NCCCNCCCNCc1cccc(CNCCCNCCCN)c1 [CZ-25, N^1,N^1′-(1,3-phenylenebis(methylene))bis(N3-(3-ammoniopropyl)propane-1,3-diaminium) chloride] | 25 | (69) μM | > 100 | MIC ([2]; read-out: MICs (μg/mL): P. aeruginosa, Table 3A c2): 500 µg/mL |
| CC(C)CNCCCNCCCNCc1cc(CNCCCNCCCNCC(C)C)cc(-c2ccccc2)c1 [CZ-86, N^1,N^1′-([1,1′-biphenyl]-3,5-diylbis(methylene))bis(N^3-(3-(isobutylamino)propyl)propane-1,3-diamine), hydrochloride salt] |  |  | < 50 | MIC (P. aeruginosa) ([2]; Table 5): ++ to +++ |
| NCCCNCCCNCc1cc(CNCCCNCCCN)cc(CNCCCNCCCN)c1 [CZ-52, N^1,N^1′,N^1″-(benzene-1,3,5-triyltris(methylene))tris(N^3-(3-aminopropyl)propane-1,3-diamine), hydrochloride salt] | 20 | (40) μM |  |  |
| CN[C@H](CC(C)C)C(=O)N[C@H]1C(=O)N[C@@H](CC(N)=O)C(=O)N[C@H]2C(=O)N[C@H]3C(=O)N[C@H](C(=O)N[C@H](C(=O)O)c4cc(O)cc(O)c4-c4cc3ccc4O)[C@H](O)c3ccc(c(Cl)c3)Oc3cc2cc(c3O[C@@H]2O[C@H](CO)[C@@H](O)[C@H](O)[C@H]2O[C@H]2C[C@](C)(N)[C@H](O)[C@H](C)O2)Oc2ccc(cc2Cl)[C@H]1O [vancomycin, reference compound] | >500 | (>345) μM |  |  |
| Polymyxin B sulfate [reference compound] |  |  |  | MICs (μg/mL): A. baumannii ([1]; Table 3A c3): 2 µg/mL; MIC μg/mL (μM) A. baumannii ([1]; Table 4): 1 µg/mL; MIC μg/mL (μM) A. baumannii ([1]; Table 4, value in parentheses): (0.7) μM |

Reference: US10440955B2, “Methods comprising a biocidal polyamine” (Curza Global, LLC, priority 2013, dated 2019)
